Experiments:
Type in all cases: ADME, organism-based
Nucleic Acid [1] = assay: Ratio of drug level in Sprague-Dawley rat brain to plasma assessed as 6-(5-chloropyrimidin-2-yl)-3-(4-((3,3-difluoro-1-hydroxycyclobutyl)methoxy)-3-methoxyphenyl)pyrrolo[1,2-f][1,2,4]triazin-4(3H)-one level at 10 mg/kg, po qd
Brain [2] = assay: Drug concentration in Sprague-Dawley rat brain assessed as 6-(5-chloropyrimidin-2-yl)-3-(4-((3,3-difluoro-1-hydroxycyclobutyl)methoxy)-3-methoxyphenyl)pyrrolo[1,2-f][1,2,4]triazin-4(3H)-one level at 10 mg/kg, po qd at 8 hrs; conditions: in vivo, read-out: Drug uptake
Plasma [3] = assay: Plasma concentration in Sprague-Dawley rat assessed as 6-(5-chloropyrimidin-2-yl)-3-(4-((3,3-difluoro-1-hydroxycyclobutyl)methoxy)-3-methoxyphenyl)pyrrolo[1,2-f][1,2,4]triazin-4(3H)-one level at 10 mg/kg, po qd at 8 hrs; conditions: in vivo
Nucleic Acid [4] = assay: Ratio of drug level in Sprague-Dawley rat brain to plasma assessed as (S)-6-(5-chloropyridin-2-yl)-3-(4-(3-(ethylsulfonyl)-2-hydroxypropoxy)-3-methoxyphenyl)pyrrolo[1,2-f][1,2,4]triazin-4(3H)-one level at 10 mg/kg, po qd
Plasma [5] = assay: Plasma concentration in Sprague-Dawley rat assessed as (S)-6-(5-chloropyridin-2-yl)-3-(4-(3-(ethylsulfonyl)-2-hydroxypropoxy)-3-methoxyphenyl)pyrrolo[1,2-f][1,2,4]triazin-4(3H)-one level at 10 mg/kg, po qd at 8 hrs; conditions: in vivo
Brain [6] = assay: Drug concentration in Sprague-Dawley rat brain assessed as (S)-6-(5-chloropyridin-2-yl)-3-(4-(3-(ethylsulfonyl)-2-hydroxypropoxy)-3-methoxyphenyl)pyrrolo[1,2-f][1,2,4]triazin-4(3H)-one level at 10 mg/kg, po qd at 8 hrs; conditions: in vivo, read-out: Drug uptake
Nucleic Acid [7] = assay: Ratio of drug level in Sprague-Dawley rat brain to plasma assessed as ((R)-6-(5-chloropyridin-2-yl)-3-(4-(3-hydroxypyrrolidin-1-yl)-3-methoxyphenyl)pyrrolo[1,2-f][1,2,4]triazin-4(3H)-one level at 10 mg/kg, po qd
Plasma [8] = assay: Plasma concentration in Sprague-Dawley rat assessed as ((R)-6-(5-chloropyridin-2-yl)-3-(4-(3-hydroxypyrrolidin-1-yl)-3-methoxyphenyl)pyrrolo[1,2-f][1,2,4]triazin-4(3H)-one level at 10 mg/kg, po qd at 8 hrs; conditions: in vivo
Brain [9] = assay: Drug concentration in Sprague-Dawley rat brain assessed as ((R)-6-(5-chloropyridin-2-yl)-3-(4-(3-hydroxypyrrolidin-1-yl)-3-methoxyphenyl)pyrrolo[1,2-f][1,2,4]triazin-4(3H)-one level at 10 mg/kg, po qd at 8 hrs; conditions: in vivo, read-out: Drug uptake

COc1cc(-n2cnn3cc(-c4ncc(Cl)cn4)cc3c2=O)ccc1OCC1(OC(=O)CN)CC(F)(F)C1
BPR (Nucleic Acid [1]): 0.7 | concentration (Brain [2]): 805 nM | concentration (Plasma [3]): 1130 nM

CCS(=O)(=O)C[C@H](COc1ccc(-n2cnn3cc(-c4ccc(Cl)cn4)cc3c2=O)cc1OC)OC(=O)CN
BPR (Nucleic Acid [4]): 0.03 | concentration (Plasma [5]): 15.6 µM | concentration (Brain [6]): 401 nM

COc1cc(-n2cnn3cc(-c4ccc(Cl)cn4)cc3c2=O)ccc1N1CC[C@@H](OC(=O)[C@@H](N)C(C)C)C1
BPR (Nucleic Acid [7]): 0.1 | concentration (Plasma [8]): 4.59 µM | concentration (Brain [9]): 664 nM

Source: ChEMBL document CHEMBL3616440, “Non-basic azolotriazinone MCHR1 antagonists for the treatment of obesity: An empirical brain-exposures-driven candidate selection for in vivo efficacy studies” (Bioorg Med Chem Lett, 2015)
